Reference: patent publication US8158792B2, “Spiropiperidines for use as tryptase inhibitors” (Janssen Pharmaceutica N.V., priority 2007, dated 2012)
pIC50: −log10 of the molar value.

Target: human lung tryptase
Assay: β-Tryptase In-Vitro Enzyme Assay
Type: biochemical
Conditions: human lung tryptase 1 nM, substrate H-D-HHT-Ala-Arg-pNa 500 μM, pH 7.4, room temperature
Method: The β-tryptase assay was conducted with human lung tryptase (Cortex Biochem #CP3033) in an aqueous buffer (10 mM Tris, 10 mM Hepes, 150 mM NaCl, 0.1% PEG 8000, pH 7.4) using the chromogenic substrate H-D-HHT-Ala-Arg-pNa. […] Percent inhibition was calculated by comparing the initial reaction velocity of samples without inhibitor to those with inhibitor. The initial reaction velocities were analyzed using Microsoft Excel.

Row | SMILES | pIC50
1 | NCc1ccc2c(c1)C1(CCN(C(=O)c3ccc(-c4ccc(Cl)cc4Cl)o3)CC1)CO2 [Cpd 136, 1-[5-(2,4-dichloro-phenyl)-furan-2-yl]carbonyl-5′-aminomethyl-spiro[piperidine-4,3′-(2H)-benzo[b]furan]] | 7.60
2 | NCc1ccc2c(c1)C1(CCN(C(=O)CCc3cccc(I)c3)CC1)CO2 [Cpd 97, 1-(3-iodo-phenethyl)carbonyl-5′-aminomethyl-spiro[piperidine-4,3′-(2H)-benzo[b]furan]] | 5.82
3 | COc1ccc(C(=O)N2CCC3(CC2)COc2ccc(CN)cc23)cc1OC [Cpd 40, 1-(3,4-dimethoxy-phenyl)carbonyl-5′-aminomethyl-spiro[piperidine-4,3′-(2H)-benzo[b]furan]] | 6.60
4 | Cc1cc(C(=O)NCc2ccc(C(=O)N3CCC4(CC3)COc3ccc(CN)cc34)o2)c(C)o1 [Cpd 156, 1-[5-(2,5-dimethyl-furan-3-yl-carbonylaminomethyl)-furan-2-yl]carbonyl-5′-aminomethyl-spiro[piperidine-4,3′-(2H)-benzo[b]furan]] | 6.89
5 | NCc1ccc2c(c1)C1(CCN(C(=O)c3ccc(I)cc3)CC1)CO2 [Cpd 49, 1-(4-iodo-phenyl)carbonyl-5′-aminomethyl-spiro[piperidine-4,3′-(2H)-benzo[b]furan]] | 6.89
6 | NCc1ccc2c(c1)C1(CCN(C(=O)c3ccc(F)cc3)CC1)CO2 [Cpd 43, 1-(4-fluoro-phenyl)carbonyl-5′-aminomethyl-spiro[piperidine-4,3′-(2H)-benzo[b]furan]] | 6.60
7 | NCc1ccc2c(c1)C1(CCN(C(=O)c3ccc(C#Cc4ccccc4Cl)o3)CC1)CO2 [Cpd 146, 1-[5-(2-chloro-phenylethynyl)-furan-2-yl]carbonyl-5′-aminomethyl-spiro[piperidine-4,3′-(2H)-benzo[b]furan]] | 8.28
8 | NCc1ccc2c(c1)C1(CCN(C(=O)c3ccc(Br)c([N+](=O)[O-])c3)CC1)CO2 [Cpd 33, 1-(3-nitro-4-bromo-phenyl)carbonyl-5′-aminomethyl-spiro[piperidine-4,3′-(2H)-benzo[b]furan]] | 6.37
9 | Cc1cc(C(=O)N2CCC3(CC2)COc2ccc(CN)cc23)ccc1Br [Cpd 30, 1-(3-methyl-4-bromo-phenyl)carbonyl-5′-aminomethyl-spiro[piperidine-4,3′-(2H)-benzo[b]furan]] | 6.85
10 | NCc1ccc2c(c1)C1(CCN(C(=O)c3ccc(S(N)(=O)=O)cc3)CC1)CO2 [Cpd 11, 1-(4-aminosulfonyl-phenyl)carbonyl-5′-aminomethyl-spiro[piperidine-4,3′-(2H)-benzo[b]furan]] | 5.33
11 | NCc1ccc2c(c1)C1(CCN(C(=O)c3ccc(CSc4ccc(C(F)(F)F)cn4)o3)CC1)CO2 [Cpd 151, 1-[5-(5-trifluoromethyl-pyridin-2-ylthiomethyl)-furan-2-yl]carbonyl-5′-aminomethyl-spiro[piperidine-4,3′-(2H)-benzo[b]furan]] | 6.74
12 | COc1ccc(/C=C/C(=O)N2CCC3(CC2)COc2ccc(CN)cc23)cc1 [Cpd 185, (E)-1-(4-methoxy-phenylethenyl)carbonyl-5′-aminomethyl-spiro[piperidine-4,3′-(2H)-benzo[b]furan]] | 5.82
13 | NCc1ccc2c(c1)C1(CCN(C(=O)CCc3ccccc3)CC1)CO2 [Cpd 79, 1-phenethylcarbonyl-5′-aminomethyl-spiro[piperidine-4,3′-(2H)-benzo[b]furan]] | 5.85
14 | NCc1ccc2c(c1)C1(CCN(C(=O)Cc3cccc(Oc4ccccc4)c3)CC1)CO2 [Cpd 88, 1-(3-phenoxy-benzyl)carbonyl-5′-aminomethyl-spiro[piperidine-4,3′-(2H)-benzo[b]furan]] | 7.59
15 | NCc1ccc2c(c1)C1(CCN(C(=O)/C=C/c3cccc(OC(F)(F)F)c3)CC1)CO2 [Cpd 167, (E)-1-(3-trifluoromethoxy-phenylethenyl)carbonyl-5′-aminomethyl-spiro[piperidine-4,3′-(2H)-benzo[b]furan]] | 6.22
16 | NCc1ccc2c(c1)C1(CCN(C(=O)c3ccc(C#Cc4ccccc4F)o3)CC1)CO2 [Cpd 35, 1-[5-(2-fluoro-phenylethynyl)-furan-2-yl]carbonyl-5′-aminomethyl-spiro[piperidine-4,3′-(2H)-benzo[b]furan]] | 8.37
17 | NCc1ccc2c(c1)C1(CCN(C(=O)c3cccc(C(=O)c4ccccc4)c3)CC1)CO2 [Cpd 4, 1-(3-benzoyl-phenyl)carbonyl-5′-aminomethyl-spiro[piperidine-4,3′-(2H)-benzo[b]furan]] | 6.12
18 | NCc1ccc2c(c1)C1(CCN(C(=O)c3ccc(Cl)c(I)c3)CC1)CO2 [Cpd 34, 1-(3-iodo-4-chloro-phenyl)carbonyl-5′-aminomethyl-spiro[piperidine-4,3′-(2H)-benzo[b]furan]] | 7.70
19 | NCc1ccc2c(c1)C1(CCN(C(=O)c3ccc(COc4ccc(F)cc4)o3)CC1)CO2 [Cpd 154, 1-[5-(4-fluoro-phenoxymethyl)-furan-2-yl]carbonyl-5′-aminomethyl-spiro[piperidine-4,3′-(2H)-benzo[b]furan]] | 6.59
20 | NCc1ccc2c(c1)C1(CCN(C(=O)c3ccc4c(c3)C(=O)c3ccccc3-4)CC1)CO2 [Cpd 8, 1-(9-oxo-fluoren-2-yl)carbonyl-5′-aminomethyl-spiro[piperidine-4,3′-(2H)-benzo[b]furan]] | 5.47

Next, values leading:

Row | pIC50 | SMILES
21 | 6.54 | NCc1ccc2c(c1)C1(CCN(C(=O)CC3c4ccccc4-c4ccccc43)CC1)CO2 [Cpd 355, 1-(9H-fluoren-9-ylmethyl)carbonyl-5′-aminomethyl-spiro[piperidine-4,3′-(2H)-benzo[b]furan]]
22 | 6.82 | CC1=C(C(=O)N2CCC3(CC2)COc2ccc(CN)cc23)Cc2ccccc21 [Cpd 192, 1-(1-methyl-3H-inden-2-yl)carbonyl-5′-aminomethyl-spiro[piperidine-4,3′-(2H)-benzo[b]furan]]
23 | 7.55 | Cn1cnc(S(=O)(=O)N2CC3(CCN(C(=O)c4ccc(C#Cc5ccccc5)o4)CC3)c3cc(CN)ccc32)c1 [Cpd 336, 1-(5-phenylethynyl-furan-2-yl)carbonyl-1′-(1-methyl-imidazol-4-yl)sulfonyl-5′-aminomethyl-spiro[piperidine-4,3′-(2H)-indole]]
24 | 5.82 | Cc1ccc2c(Cl)c(C(=O)N3CCC4(CC3)COc3ccc(CN)cc34)sc2c1 [Cpd 207, 1-(3-chloro-6-methyl-benzo[b]thien-2-yl)carbonyl-5′-aminomethyl-spiro[piperidine-4,3′-(2H)-benzo[b]furan]]
25 | 7.14 | NCc1ccc2c(c1)C1(CCN(C(=O)c3ccc(Br)s3)CC1)CO2 [Cpd 198, 1-(5-bromo-thien-2-yl)carbonyl-5′-aminomethyl-spiro[piperidine-4,3′-(2H)-benzo[b]furan]]
26 | 6.54 | COC(=O)c1cccc(C(=O)N2CC3(CCN(C(=O)c4ccc(C#Cc5ccccc5)o4)CC3)c3cc(CN)ccc32)c1 [Cpd 328, 1-(5-phenylethynyl-furan-2-yl)carbonyl-1′-(3-methoxycarbonyl-phenyl)carbonyl-5′-aminomethyl-spiro[piperidine-4,3′-(2H)-indole]]
27 | 6.80 | COC(=O)CCN1CC2(CCN(C(=O)c3ccc(C#Cc4ccccc4)o3)CC2)c2cc(CN)ccc21 [Cpd 321, 1-(5-phenylethynyl-furan-2-yl)carbonyl-1′-(2-methoxycarbonyl-ethyl)-5′-aminomethyl-spiro[piperidine-4,3′-(2H)-indole]]
28 | 6.55 | C=CCc1ccc(OCc2ccc(C(=O)N3CCC4(CC3)COc3ccc(CN)cc34)o2)c(OC)c1 [Cpd 224, 1-[5-(2-methoxy-4-allyl-phenoxymethyl)-furan-2-yl]carbonyl-5′-aminomethyl-spiro[piperidine-4,3′-(2H)-benzo[b]furan]]
29 | 7.39 | NCc1ccc2c(c1)C1(CCN(C(=O)c3ccc(C#Cc4ccccc4)o3)CC1)CN2S(=O)(=O)c1cccc(C(=O)O)c1 [Cpd 331, 1-(5-phenylethynyl-furan-2-yl)carbonyl-1′-(3-carboxy-phenyl)sulfonyl-5′-aminomethyl-spiro[piperidine-4,3′-(2H)-indole]]
30 | 7.82 | NCc1ccc2c(c1)C1(CCN(C(=O)c3ccc(C#Cc4ccccc4)o3)CC1)CN2S(=O)(=O)c1ccsc1 [Cpd 359, 1-(5-phenylethynyl-furan-2-yl)carbonyl-1′-thien-3-ylsulfonyl-5′-aminomethyl-spiro[piperidine-4,3′-(2H)-indole]]
31 | 6.16 | Cc1occc1C(=O)NCc1ccc(C(=O)N2CCC3(CC2)COc2ccc(CN)cc23)o1 [Cpd 220, 1-[5-(2-methyl-furan-3-yl-carbonylaminomethyl)-furan-2-yl]carbonyl-5′-aminomethyl-spiro[piperidine-4,3′-(2H)-benzo[b]furan]]
32 | 6.17 | NCc1ccc2c(c1)C1(CCN(C(=O)c3cc4ccccc4oc3=O)CC1)CO2 [Cpd 196, 1-(2-oxo-(2H)-chromen-3-yl)carbonyl-5′-aminomethyl-spiro[piperidine-4,3′-(2H)-benzo[b]furan]]
33 | 6.55 | NCc1ccc2c(c1)C1(CCN(C(=O)c3scc4c3CCCC4)CC1)CO2 [Cpd 203, 1-(5,6,7-trihydro-4H-benzo[c]thien-1-yl)carbonyl-5′-aminomethyl-spiro[piperidine-4,3′-(2H)-benzo[b]furan]]
34 | 6.37 | NCc1ccc2c(c1)C1(CCN(C(=O)CC(c3ccccc3)c3ccccc3)CC1)CO2 [Cpd 354, 1-(2,2-diphenylethyl)carbonyl-5′-aminomethyl-spiro[piperidine-4,3′-(2H)-benzo[b]furan]]
35 | 7.36 | COc1cccc(OCc2ccc(C(=O)N3CCC4(CC3)COc3ccc(CN)cc34)o2)c1 [Cpd 227, 1-[5-(3-methoxy-phenoxymethyl)-furan-2-yl]carbonyl-5′-aminomethyl-spiro[piperidine-4,3′-(2H)-benzo[b]furan]]
36 | 8.04 | COc1cccc2c(C(=O)N3CCC4(CC3)COc3ccc(CN)cc34)sc(SC)c12 [Cpd 235, 1-(3-methylthio-4-methoxy-benzo[c]thien-1-yl)carbonyl-5′-aminomethyl-spiro[piperidine-4,3′-(2H)-benzo[b]furan]]
